From ChEMBL document CHEMBL1201862, “PubChem BioAssay data set” (2004) come the findings set out here.

Assay in all cases: DTP human tumour cell line panel, 48 h
Assay [1] deals with 786-0.
For assay [2], the system named is A498.
The subject of assay [3] is COLO 205.
For assay [4], the system named is EKVX.
In assay [5] the test system is HL-60.
Assay [6] relates to HOP-92.
Assay [7] has as its system KM12.
In assay [8] the test system is Malme-3M.
Assay [9] relates to NCI-H23.
The subject of assay [10] is OVCAR-3.
Assay [11] has as its system OVCAR-4.
The subject of assay [12] is OVCAR-8.
In assay [13] the test system is SF-295.
Assay [14] relates to SK-MEL-2.
The test system of assay [15] is SK-OV-3.
Assay [16] deals with SN12C.
The test system of assay [17] is SW-620.
The subject of assay [18] is TK-10.
Assay [19] relates to UACC-257.
For assay [20], the system named is UO-31.

Each structure is given as a SMILES string.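 Method: 48-hour compound exposure of cells in 96-well plates, five concentrations, linear interpolation of endpoints. At the GI50, growth is halved.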 Activity calls are given as the source filed them. No stated cut-off is given here; in the data, active = GI50 up to about 1.1 µM and inactive = higher.

With `Cc1cc(N(CCC#N)CCC#N)ccc1/C=C1N=C(/C=C\c2ccccc2)OC\1=O`, the GI50 in assay [1], in [2], in assay [3], in assay [4], in assay [5] and in assay [6] was > 100 µM (inactive) throughout. Also, the GI50 in [7], in assay [8], in assay [9], in assay [10], in [11] and in [12] was > 100 µM (inactive) in each case. The GI50 in assay [13], in assay [14], in assay [15], in [16], in assay [17] and in [18] was > 100 µM (inactive) each time. Further, the GI50 in [19] and in assay [20] was > 100 µM (inactive) in each case.

As to `CCCCCCCSCC(O)COC(c1ccccc1)(c1ccccc1)c1ccccc1` (stereo not given), the GI50 (in general, the concentration at which growth is held to half of that of the control) in assay [1] was 48.8 µM (inactive); in [2], > 100 µM (inactive); in [3], 39.8 µM (inactive); in assay [4], 53 µM (inactive); in assay [5], 26.9 µM (inactive); in assay [6] it was 26.7 µM (inactive). Moreover, the concentration for 50% growth inhibition (GI50) in [7] is 0.051 µM (active); in assay [8], 60 µM (inactive); in assay [9], 14.8 µM (inactive); in assay [10] it was 29.2 µM (inactive); in assay [11] it was 49.9 µM (inactive); in [12], 61.8 µM (inactive). Besides, the GI50 in assay [13] is 35.3 µM (inactive); in [14], 18.3 µM (inactive); in assay [15], > 100 µM (inactive); in [16], 37.7 µM (inactive); in [17], 78 µM (inactive); in assay [18], 87.3 µM (inactive). The GI50 in assay [19] is 34.5 µM (inactive); in assay [20], 5.81 µM (inactive).

As for `Cc1cc2ccc(OC(=O)c3ccc(NC(=N)N)cc3)cc2oc1=O`, the GI50 in assay [1] was 25.1 µM (inactive); in assay [2] it was 21.2 µM (inactive); in assay [3], 23.7 µM (inactive); in assay [4] it was 30.5 µM (inactive); in [5], 5.93 µM (inactive); in assay [6] it was 41.6 µM (inactive). Moreover, the GI50 was 21.7 µM (inactive) in assay [7]; 22 µM (inactive) in [8]; 21.3 µM (inactive) in assay [9]; 16.5 µM (inactive) in [10]; 16.6 µM (inactive) in [11]; 33.3 µM (inactive) in assay [12]. The GI50 is 46.5 µM (inactive) in assay [13]; 25.4 µM (inactive) in assay [14]; 19.1 µM (inactive) in [15]; 23.6 µM (inactive) in assay [16]; 24.7 µM (inactive) in assay [17]; 22.5 µM (inactive) in assay [18]. In addition, the GI50 in assay [19] was 35.2 µM (inactive); in assay [20] it was 52.4 µM (inactive).

As for `O=C(O)C1CC=CCC1C(=O)Nc1cccc(O)c1` (stereo not given), the GI50 in [1], in [2], in [3], in assay [4], in assay [5] and in [6] was > 100 µM (inactive) throughout. In addition, the GI50 in assay [7], in assay [8], in assay [9], in [10], in assay [11] and in assay [12] was > 100 µM (inactive) in each case. Moreover, the GI50 in assay [13], in [14], in assay [15], in assay [16], in assay [17] and in assay [18] was > 100 µM (inactive) throughout. The GI50 in assay [19] and in [20] was > 100 µM (inactive) throughout.

On to `O=C(Nc1ccc(Sc2ccc(/N=N/c3c(O)c(S(=O)(=O)O)cc4cc(S(=O)(=O)O)ccc34)cc2)cc1)c1ccc(/N=N/c2c(O)c(S(=O)(=O)O)cc3cc(S(=O)(=O)O)ccc23)cc1`, for which the GI50 is 43.6 µM (inactive) in assay [1]; 45.2 µM (inactive) in [2]; 15.9 µM (inactive) in assay [3]; 17.7 µM (inactive) in assay [4]; 6.97 µM (inactive) in assay [5]; 30.5 µM (inactive) in assay [6]. Moreover, the GI50 in [7] was 33 µM (inactive); in assay [8] it was 15.5 µM (inactive); in assay [9], 12.2 µM (inactive); in assay [10], 15.8 µM (inactive); in assay [11], 24.1 µM (inactive); in assay [12] it was 21 µM (inactive). Also, the GI50 in assay [13] is 22.3 µM (inactive); in assay [14], 18.8 µM (inactive); in [15], > 100 µM (inactive); in assay [16], 26.9 µM (inactive); in [17], 28.3 µM (inactive); in assay [18] it was 27.5 µM (inactive). For the same compound, the GI50 in assay [19] is 13.8 µM (inactive); in assay [20], 35.6 µM (inactive).

As for `Cn1c(=O)cc(/N=N\c2ccc(Cl)c(Cl)c2)[nH]c1=O`, the GI50 in assay [1] is 17.6 µM (inactive); in assay [2], > 100 µM (inactive); in assay [3], 22.2 µM (inactive); in [4], 24.5 µM (inactive); in assay [5], 20.8 µM (inactive); in assay [6], 30 µM (inactive). In addition, the GI50 in assay [7] is > 100 µM (inactive); in assay [8] it was 16.1 µM (inactive); in assay [9], 37.3 µM (inactive); in assay [10], 18.7 µM (inactive); in assay [11] it was 27.7 µM (inactive); in [12] it was 23.4 µM (inactive). Moreover, the GI50 in assay [13] is > 100 µM (inactive); in assay [14], 14.6 µM (inactive); in [15], > 100 µM (inactive); in assay [16] it was 41.1 µM (inactive); in assay [17], 24.3 µM (inactive); in [18] it was 23.8 µM (inactive). For the same compound, the GI50 in [19] was 33.5 µM (inactive); in [20], > 100 µM (inactive).

For the compound `CCc1cccc(C(C)C)c1N1C(=O)C(=O)C(c2nc3ccccc3s2)C(=O)C1=O`, the GI50 in assay [1] is > 50 µM (inactive); in assay [2], > 50 µM (inactive); in assay [3], 16.8 µM (inactive); in assay [4], > 50 µM (inactive); in assay [5] it was 12.3 µM (inactive); in [6], > 50 µM (inactive). Also, the GI50 was > 44.7 µM (inactive) in assay [7]; > 26.2 µM (inactive) in [8]; 27.9 µM (inactive) in [9]; > 25.5 µM (inactive) in [10]; > 50 µM (inactive) in assay [11]; > 35.2 µM (inactive) in [12]. Also, the GI50 in assay [13] was > 39.4 µM (inactive); in assay [14] it was > 50 µM (inactive); in [15] it was > 50 µM (inactive); in assay [16], > 50 µM (inactive); in [17], 32.7 µM (inactive); in [18], > 50 µM (inactive). Further, the GI50 is > 39.3 µM (inactive) in [19] and > 50 µM (inactive) in assay [20].

Turning to `COC(=O)/C=C/C(=O)Nc1cc(Cl)c(Cl)cc1CC(=O)N(C)[C@H]1CCCC[C@@H]1N1CCCC1`, the GI50 is 3.83 µM (inactive) in assay [1]; 14.4 µM (inactive) in assay [2]; 1.54 µM (inactive) in assay [3]; 13.1 µM (inactive) in [4]; 2.06 µM (inactive) in [5]; 5.74 µM (inactive) in assay [6]. Besides, the GI50 in [7] is 22.1 µM (inactive); in assay [8], 6.41 µM (inactive); in assay [9], 13.8 µM (inactive); in assay [10], 3.27 µM (inactive); in assay [11] it was 8.63 µM (inactive); in assay [12], 5.27 µM (inactive). Also, the GI50 in assay [13] is 18.3 µM (inactive); in assay [14] it was 7.29 µM (inactive); in assay [15], 18.1 µM (inactive); in assay [16] it was 10.2 µM (inactive); in assay [17] it was 3.63 µM (inactive); in assay [18], 2.29 µM (inactive). Besides, the GI50 in assay [19] is 3.05 µM (inactive); in assay [20], 4.52 µM (inactive).

As for `Oc1ccc(/C=C/c2cc(O)cc3c2C(c2cc(O)cc(O)c2)C(c2ccc(O)c(O)c2)O3)cc1` (stereo not given), the GI50 in [1] is 41.8 µM (inactive); in assay [2], 33.5 µM (inactive); in assay [3] it was 19.5 µM (inactive); in assay [4] it was 25.3 µM (inactive); in [5] it was 27.1 µM (inactive); in assay [6] it was 37.1 µM (inactive). Moreover, the GI50 in assay [7] is 25.6 µM (inactive); in assay [8] it was 26.7 µM (inactive); in assay [9], 18.8 µM (inactive); in assay [10], 27.8 µM (inactive); in [11], 16.8 µM (inactive); in assay [12] it was 21.6 µM (inactive). Further, the GI50 is 36.6 µM (inactive) in assay [13]; 28.4 µM (inactive) in assay [14]; 32.5 µM (inactive) in [15]; 17.6 µM (inactive) in assay [16]; 39.2 µM (inactive) in assay [17]; 27.1 µM (inactive) in assay [18]. The values for the GI50 in assay [19] and in assay [20] were 25.3 µM (inactive) and 30.9 µM (inactive), respectively.

Take `CC1=NN(c2nc(N)nc(C(C)Sc3cc(Cl)c(C)cc3S(N)(=O)=O)n2)C(C)(C)C1` (stereo not given): the GI50 in assay [1], in assay [2], in assay [3], in assay [4], in assay [5] and in assay [6] was > 10 µM (inactive) in each case. Further, the GI50 in assay [7], in assay [8], in assay [9], in assay [10], in assay [11] and in [12] was > 10 µM (inactive) each time. Further, the GI50 in assay [13], in [14], in assay [15], in assay [16], in assay [17] and in assay [18] was > 10 µM (inactive) throughout. Further, the GI50 in assay [19] and in assay [20] was > 10 µM (inactive) in each case.
